Assay results taken from ChEMBL document CHEMBL4138146, “A Schmidt rearrangement-mediated synthesis of novel tetrahydro-benzo[1,4]diazepin-5-ones as potential anticancer and antiprotozoal agents” (Eur J Med Chem, 2017).

Experiments:
Type in all cases: functional
SNB-19 = assay: Growth inhibition of human SNB19 cells assessed as cell growth at 10^-5 M incubated for 48 hrs by sulforhodamine B assay relative to control; conditions: SNB-19, 48 h, read-out: Activity
OVCAR-8 = assay: Growth inhibition of human OVCAR8 cells assessed as cell growth at 10^-7 M incubated for 48 hrs by sulforhodamine B assay relative to control; conditions: OVCAR-8, 48 h, read-out: Activity
OVCAR-4 = assay: Growth inhibition of human OVCAR4 cells assessed as cell growth at 10^-4 M incubated for 48 hrs by sulforhodamine B assay relative to control; conditions: OVCAR-4, 48 h, read-out: Activity

CCCCOc1nc2ccccc2cc1C1CNC(=O)c2ccccc2N1 (stereo not drawn)
growth at 10 µM (SNB-19): 38%
growth at 0.1 µM (OVCAR-8): 98%
growth at 100 µM (OVCAR-4): -37%
